Data reported in article PMC3523469 (Investigational New Drugs, 2012).
Read-outs that look alike come from different tables or passages of the source.

Key:
[1] = Plasma pharmacokinetics after single; format: in vivo, Japanese patients; settings: for Ctrough: range (min, max) of averaged Ctrough concentrations from Day 1 of Cycles 2 to 4; for AUC(0-inf) / half-life / Cmax / Tmax: human, plasma
[2] = cited from earlier work
[3] = system: human tumor xenograft models that express and/or overexpress HER family members; settings: cited from earlier work

COc1cc2ncnc(Nc3ccc(F)c(Cl)c3)c2cc1NC(=O)/C=C/CN1CCCCC1 [dacomitinib, Dacomitinib]
Ctrough ([1]; 15 mg QD): 28.2 to 33.2 ng/mL
Ctrough ([1]; 30 mg QD): 49.0 to 56.5 ng/mL
Ctrough ([1]; 45 mg QD): 60.9 to 76.6 ng/mL
kinetics after single- and multiple-dose administration ([1]; dose range studied, 15–45 mg): linear kinetics
AUC(0-inf) ([1]; oral, 15 mg): 660 ng·h/mL
half-life ([1]; oral, 15 mg): 61.1 h
Cmax ([1]; oral, 15 mg, single dose (D-9), N 3, mean (%CV)): 8 ng/mL
Tmax ([1]; oral, 15 mg, Tmax, multiple dose (C1D14), 15 mg QD, N 2, median (min, max)): 15 h
Tmax ([1]; oral, 15 mg, Tmax, single dose (D-9), N 3, median (min, max)): 24 h
AUC(0-inf) ([1]; oral, 30 mg): 988 ng·h/mL
half-life ([1]; oral, 30 mg): 98 h
Cmax ([1]; oral, 30 mg, multiple dose (C1D14), 30 mg QD, N 3, mean (%CV)): 64.3 ng/mL
Cmax ([1]; oral, 30 mg, single dose (D-9), N 3, mean (%CV)): 12.2 ng/mL
Tmax ([1]; oral, 30 mg, Tmax, multiple dose (C1D14), 30 mg QD, N 3, median (min, max)): 4 h
Tmax ([1]; oral, 30 mg, Tmax, single dose (D-9), N 3, median (min, max)): 8 h
AUC(0-inf) ([1]; oral, 45 mg): 1600 ng·h/mL
half-life ([1]; oral, 45 mg): 80 h
Cmax ([1]; oral, 45 mg, multiple dose (C1D14), 45 mg QD, N 6, mean (%CV)): 81.2 ng/mL
Cmax ([1]; oral, 45 mg, single dose (D-9), N 7, mean (%CV)): 21.2 ng/mL
Tmax ([1]; oral, 45 mg, Tmax, multiple dose (C1D14), 45 mg QD, N 6, median (min, max)): 8 h
Tmax ([1]; oral, 45 mg, Tmax, single dose (D-9), N 7, median (min, max)): 6 h
Tmax ([1]; po, median Tmax, single oral dose (D-9), range over the dose range of 15–45 mg): 6 to 24 h
Cave ([1]; multiple dose (C1D14), 30 mg QD, N 3, mean (%CV)): 56.3 (22) ng/mL
Cave ([1]; multiple dose (C1D14), 45 mg QD, N 6, mean (%CV)): 75.1 (23) ng/mL
dose dependence of Cmax and AUCinf ([1]; single oral dose (D-9), 15–45 mg): increased along with dose in a proportional manner
DLT stomatitis, number of patients ([2]; 1 each at 30 mg QD and 60 mg QD): 2
maximum tolerated dose (MTD) ([2]; Western patients, 0.5–60 mg studied): 45 mg QD
clinically recommended phase II dose (RP2D) ([2]; Western patients): 45 mg QD
DLT rash, number of patients ([2]; at 45 mg QD): 2
DLT palmar–plantar erythrodysesthesia syndrome, dehydration, and diarrhea in the same patient, number of patients ([2]; at 60 mg QD): 1
antitumor effects ([3]; tumors with EGFR-activating mutations and tumors with T790M): Antitumor effects were shown
antitumor effects ([3]; xenograft models that express and/or overexpress HER family members): showed antitumor effects
